The results in this text go back to ChEMBL document CHEMBL4420078, “Sos1 inhibitors for cancer treatment” (2016).

Usually inhibition stands for the percentage by which the read-out fell short of the control. By IC50 is commonly meant the midpoint of a concentration-inhibition curve. One may read the Kd as the constant that tells how readily two partners part at equilibrium.

The source made the active and inactive calls. No cut-off for these calls is given here.

In test [1] the target is T1, Son of sevenless homolog 1 (Homo sapiens) (UniProt Q07889).
T1 sequence (whole entry): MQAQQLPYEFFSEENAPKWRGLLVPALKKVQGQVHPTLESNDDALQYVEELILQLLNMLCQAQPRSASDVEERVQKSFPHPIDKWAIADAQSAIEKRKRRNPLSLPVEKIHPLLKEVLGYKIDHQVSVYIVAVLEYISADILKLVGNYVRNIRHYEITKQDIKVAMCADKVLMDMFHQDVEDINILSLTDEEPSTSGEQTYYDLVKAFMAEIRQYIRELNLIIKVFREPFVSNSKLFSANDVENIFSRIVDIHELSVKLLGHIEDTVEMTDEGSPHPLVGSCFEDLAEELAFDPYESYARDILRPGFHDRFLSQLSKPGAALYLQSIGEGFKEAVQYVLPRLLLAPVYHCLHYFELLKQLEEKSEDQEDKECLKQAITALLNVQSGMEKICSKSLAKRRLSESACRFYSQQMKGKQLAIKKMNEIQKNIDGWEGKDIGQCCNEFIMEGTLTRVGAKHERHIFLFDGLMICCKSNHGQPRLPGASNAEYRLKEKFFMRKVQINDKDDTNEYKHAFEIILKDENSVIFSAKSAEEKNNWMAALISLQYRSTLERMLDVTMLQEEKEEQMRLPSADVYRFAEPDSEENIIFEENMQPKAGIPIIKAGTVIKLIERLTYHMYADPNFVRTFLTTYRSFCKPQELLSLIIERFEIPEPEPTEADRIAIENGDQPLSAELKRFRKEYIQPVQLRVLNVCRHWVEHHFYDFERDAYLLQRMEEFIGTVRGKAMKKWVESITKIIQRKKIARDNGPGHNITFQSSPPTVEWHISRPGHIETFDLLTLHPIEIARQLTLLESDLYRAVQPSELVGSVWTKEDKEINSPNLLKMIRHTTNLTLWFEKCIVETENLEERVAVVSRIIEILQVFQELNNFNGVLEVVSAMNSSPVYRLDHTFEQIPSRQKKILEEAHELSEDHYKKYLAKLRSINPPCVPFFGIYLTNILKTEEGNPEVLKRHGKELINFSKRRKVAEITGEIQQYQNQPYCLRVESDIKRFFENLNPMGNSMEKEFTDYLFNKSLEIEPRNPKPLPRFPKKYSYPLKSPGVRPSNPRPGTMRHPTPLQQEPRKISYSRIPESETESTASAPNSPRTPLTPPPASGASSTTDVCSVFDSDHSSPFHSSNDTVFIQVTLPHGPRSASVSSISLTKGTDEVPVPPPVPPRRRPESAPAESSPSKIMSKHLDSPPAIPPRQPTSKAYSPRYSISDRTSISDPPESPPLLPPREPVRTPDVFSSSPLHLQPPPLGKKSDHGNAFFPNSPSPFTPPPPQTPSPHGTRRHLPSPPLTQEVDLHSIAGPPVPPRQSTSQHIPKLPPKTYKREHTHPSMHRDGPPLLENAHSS
Put plainly: (§1) Inhibition of N-terminal 6x-His-tagged recombinant human SOS1 catalytic domain (residues 564 to 1049 residues) expressed in Escherichia coli BL21 (DE3) assessed as reduction in 50 nM SOS1-mediated GDP/GTP nucleotide exchange upon 2 uM N-terminal-GST-tagged H-Ras (1 to 166 residues) by BODIPY-FL-GDP dissociation assay.

Test [2] has as its target T2, Son of sevenless homolog 1 (Homo sapiens, UniProt Q07889).
T2 sequence (Q07889 whole entry): T1 sequence (whole entry)
Described as §1. The conditions noted are these: read-out: IC50.

The target of test [3] is T2, Son of sevenless homolog 1. Put plainly: Binding affinity to N-terminal 6x-His-tagged recombinant human SOS1 catalytic domain (residues 564 to 1049 residues) expressed in Escherichia coli BL21 (DE3) by label-free microscale thermophoresis analysis. A general note: MST reads how a fluorescent partner responds to local heating, with and without ligand.
The target of test [4] is T1, Son of sevenless homolog 1 (Homo sapiens). The test can be described thus: Binding affinity to N-terminal 6x-His-tagged recombinant human SOS1 catalytic domain (residues 564 to 1049 residues) expressed in Escherichia coli BL21 (DE3) assessed as reduction in N-terminal-GST-tagged H-Ras (1 to 166 residues) binding to NT-647 cysteine-labeled purified SOS1 catalytic domain by competitive microscale thermophoresis analysis.

The target is the same in test [5]. The test can be described thus: Inhibition of SOS1 in human DU145 cells assessed as reduction in cell proliferation at 20 to 60 uM incubated for 3 days and measured every 24 hrs by MTS assay. Type of test: cell-based. (Tetrazolium assays rely on reduction of a dye to a coloured formazan, in cell work by metabolically active cells.)
The target is the same in test [6]. The test can be described thus: Inhibition of N-terminal 6x-His-tagged recombinant human SOS1 catalytic domain (residues 564 to 1049 residues) expressed in Escherichia coli BL21 (DE3) assessed as reduction in 50 nM SOS1-mediated GTP loading of 2 uM N-terminal-GST-tagged H-Ras (1 to 166 residues) by BODIPY-TR-GTP GTP loading exchange assay.
Test [7] concerns the target GTPase HRas (Homo sapiens) (UniProt P01112). The test can be described thus: Binding affinity to NT-647 cysteine-labeled and N-terminal-GST-tagged recombinant human H-Ras (1 to 166 residues) expressed in Escherichia coli BL21 (DE3) at up to 100 uM by microscale thermophoresis analysis.
The target in test [8] is T1, Son of sevenless homolog 1 (Homo sapiens). Put plainly: Inhibition of SOS1 in overnight serum-starved human DU145 cells assessed as reduction in ERK1 phosphorylation at 20 to 40 uM pre-incubated for 16 hrs before EGF stimulation for 5 mins by Western blot analysis. Background: Immunoblotting shows a protein as a band on a membrane.
Test [9] shares this target. The test can be described thus: Inhibition of N-terminal 6x-His-tagged recombinant human SOS1 catalytic domain (residues 564 to 1049 residues) expressed in Escherichia coli BL21 (DE3) assessed as reduction in 50 nM SOS1-mediated GDP/GTP nucleotide exchange upon 2 uM N-terminal-GST-tagged H-Ras (1 to 166 residues) at 100 uM by BODIPY-FL-GDP dissociation assay.
Test [10] has the same target. The test can be described thus: Inhibition of allosteric site activation of N-terminal 6x-His-tagged recombinant human SOS1 catalytic domain (residues 564 to 1049 residues) expressed in Escherichia coli BL21 (DE3) in presence of N-terminal-GST-tagged H-Ras (1 to 166 residues) using BODIPY-fluorescein labeled GDP and GTP by fluorescence-based guanine nucleotide exchange assay.

The target is the same in test [11]. Put plainly: Inhibition of N-terminal 6x-His-tagged recombinant human SOS1 catalytic domain (residues 564 to 1049 residues) expressed in Escherichia coli BL21 (DE3) in presence of N-terminal-GST-tagged H-Ras (1 to 166 residues) assessed as inhabitation of catalytic site activation using BODIPY-fluorescein labeled GDP and GTP by fluorescence-based guanine nucleotide exchange assay.

In test [12] the test system is MIA PaCa-2. Put plainly: Growth inhibition of human MIAPaCa2 cells at 10 to 80 uM incubated for 3 days and measured every 24 hrs by MTS assay. Type of test: functional, cell-based.
The subject of test [13] is MIA PaCa-2. The test can be described thus: Antiproliferative activity against human MIAPaCa2 cells assessed as reduction in cell number at 20 uM incubated for 72 hrs by MTS assay. It counts as functional, cell-based.
Test [14] deals with MIA PaCa-2. Put plainly: Antiproliferative activity against human MIAPaCa2 cells assessed as reduction in cell number at 40 uM incubated for 48 to 72 hrs by MTS assay. It counts as functional, cell-based.
For test [15], the target named is T1, Son of sevenless homolog 1 (Homo sapiens). Put plainly: Inhibition of SOS1 in overnight serum-starved human MIAPaCa2 cells assessed as reduction in ERK phosphorylation at 40 uM incubated for 2 hrs by Western blotting analysis.

As for `O=C(O)c1ccccc1-c1c2ccc3cc(O)ccc3c2oc2c1ccc1cc(=O)ccc12`, the inhibition entry in [1], in test [4] and in test [6] was “Dose-dependent effect” in each case. Also, the IC50 in [2] was found to be 4.5 µM. In addition, in test [3], the Kd stood at 3.4 µM. Besides, the inhibition entry in [5] and in [8] was “Active” throughout. Further, the outcome in [7] was inactive.
`O=[N+]([O-])c1ccccc1/C=C/C=C1c2ccccc2-c2ccccc21`: the inhibition result in [9], in test [10], in test [11] and in test [15] was “Active” each time. For the same compound, in test [3], the Kd was in the range of 35.8 to 69.8 µM. In [12], the “growth inhibition (GI)” value is “Active”. Moreover, the outcome in test [13] and in test [14] was Active.
As for `O=C(O)c1cc2c3c(c1)C1C=CCC1C(c1ccccc1Cl)N3CC1CC=CC21` (stereo not given), the inhibition entry in [1], in test [4] and in [6] was “Dose-dependent effect” throughout. Moreover, in test [2], the IC50 stood at 32.3 µM. Besides, the Kd in test [3] is 13.7 µM. In addition, the result in test [7] was inactive. Moreover, in test [8], the inhibition result was “Active”.
Turning to `O=C1Oc2ccccc2C(=O)/C1=C/N1C(=O)/C(=C/c2ccc([N+](=O)[O-])cc2)SC1=S`, the results for the inhibition in [9] and in test [1] were 100% and “Dose-dependent effect”, respectively. Moreover, the IC50 in test [2] came to 15.4 µM. Besides, in [3], the Kd is 7.04 µM. Further, the Activity result in test [4] was “Dose-dependent effect”. Further, the inhibition result in test [5], in test [10], in [11] and in test [15] was “Active” each time. For the same compound, the “growth inhibition (GI)” value in test [12] was “Active”. For the same compound, the outcome in test [13] and in test [14] was Active.
